In US4120864A, “1,2,4-4H-triazole derivatives” (Rohm and Haas Company, priority 1972, dated 1978):
Where two headings read alike, the source gives them in different places.

Tests used:
[1] = tested on: wheat leaf rust, Puccinia recondita; experiment: whole plant or invertebrate; type: in vivo; conditions: foliar
[2] = tested on: wheat leaf rust, Puccinia recondita; experiment: whole plant or invertebrate; type: in vivo; conditions: foliar; remark: listed apart in the source
[3] = tested on: wheat leaf rust, Puccinia recondita; type: in vivo
[4] = tested on: wheat leaf rust, Puccinia recondita; experiment: Foliar systemic activity on leaf rust; type: in vivo
Source text: Another type of systemic test was run in which pots of approximately 5 inch high wheat plants were sprayed with varying concentrations of the test compound. Thirty-six hours later they were sprayed six minutes in a rain machine which amounted to about one inch of normal rainfall. The plants were then placed in a greenhouse for 7 days and then inoculated with a spore suspension of wheat leaf rust, Puccinia recondita. About 7 days later lesion counts were made on ten leaves representing the sprayed leaves and new growth from each replicate and compared with similar pots of wheat plants which were untreated with a chemical and the percent disease control determined. Disease control on the new growth is a measure of systemic activity. The commercial product known by the trademarked name Plantvax, which is 2,3-dihydro-5-carboxanilido-6-methyl-1,4-oxathiin-4,4-dioxide, was used as a standard.

[5] = tested on: Pythium ultimum; conditions: in vivo

SMILES: CCCCn1cnnc1SC(=O)c1ccc(OC)cc1 [Example 121, 3-(4-methoxybenzoylmercapto)-4-n-butyl-1,2,4-triazole]
- pest or weed control at 280.212 g/ha ([1]; read-out: % Control (without rain), foliar, 0.25 lb.): 90%
- pest or weed control at 1120.85 g/ha ([1]; read-out: % Control (without rain), foliar, 1 lb.): 98%
- pest or weed control at 280.212 g/ha ([2]; read-out: % Control (with 1" of rain), foliar, 0.25 lb., 1" of rain): 100%
- pest or weed control at 1120.85 g/ha ([2]; read-out: % Control (with 1" of rain), foliar, 1 lb., 1" of rain): 100%
- % Systemic Wheat Leaf Rust Control ([3]; 2.5 ppm in soil): 98%
- % Systemic Wheat Leaf Rust Control ([3]; 5 ppm in soil): 100%
- % Systemic Wheat Leaf Rust Control ([3]; 10 ppm in soil): 100%
- % Rust Control, New growth ([4]; 1/2 lb./100 gal.): 92%
- % Rust Control, Sprayed Leaf ([4]; 1/2 lb./100 gal.): 95%
- % Rust Control, New growth ([4]; 1/6 lb./100 gal.): 79%
- % Rust Control, Sprayed Leaf ([4]; 1/6 lb./100 gal.): 81%
- % Rust Control, New growth ([4]; 1/12 lb./100 gal.): 77%
- % Rust Control, Sprayed Leaf ([4]; 1/12 lb./100 gal.): 91%
- control of Pythium ultimum [5]: excellent control
